Read-outs that look alike come from different tables or passages of the source. One block for each molecule: values may come before it. Non-standard residues stand in square brackets, D forms with d. Residues, ends and D or L forms follow the SMILES beside them. Cha = N[C@@H](CC1CCCCC1)C(=O)O
Key:
C5a receptor [1] = details: cited from earlier work
C5a receptor [2] = details: literature; cited from earlier work
C5a receptor [3] = target: T1, C5a receptor (Homo sapiens, UniProt P21730); type: binding; details: 293 cells present, FIG. 4A; PMN membranes
T1 construct: followed by a 20 μL aliquot of neutrophil membrane; endogenous in cells
T1 sequence (P21730 1-350): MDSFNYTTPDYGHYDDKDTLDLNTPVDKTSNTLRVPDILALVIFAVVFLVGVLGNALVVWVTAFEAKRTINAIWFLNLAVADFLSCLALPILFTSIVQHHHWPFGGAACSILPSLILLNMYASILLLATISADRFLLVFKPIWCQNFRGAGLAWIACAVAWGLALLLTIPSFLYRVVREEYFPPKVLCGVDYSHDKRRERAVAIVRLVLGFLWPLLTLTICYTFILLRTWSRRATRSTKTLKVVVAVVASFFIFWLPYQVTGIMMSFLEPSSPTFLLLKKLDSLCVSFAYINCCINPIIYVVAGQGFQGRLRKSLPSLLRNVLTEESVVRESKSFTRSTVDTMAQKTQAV
From the text: FIGS. 4A, 4B and 4C. (A) Competition binding curve using ^125 I-labeled intact C5a and unlabeled C013 peptide in the presence and absence of protease secreting cells.
(B) Competition binding curve using ^125 I-labeled intact C5a and unlabeled C028 peptide in the presence and absence of protease secreting cells.
(C) Competition binding curve using ^125 I-labeled intact C5a and unlabeled C013 and C028 peptides in the presence and absence of protease secreting cells in the presence or absence of protease inhibitor.
We therefore attempted, and succeeded, to improve on this radioligand by identifying a compound with lower non-specific binding, and higher binding affinity. We developed the compound C013, ^125 I-Tyr Phe Lys Ala Cha Gly Leu dPhe Arg, SEQ.ID:2:, which had about 30-fold the binding affinity of ^125 I-C009.

Molecule: natural C-terminus of C5a: synthetic peptide consisting of the C-terminal eight amino acids of C5a (HKDMQLGR; C5a anaphylatoxin; UniProt P01031 744-751, looked up, fragment) [reference compound]
Ki (C5a receptor [1]; C-terminal eight residues of C5a, read-out: Ki, inhibition of C5a binding): 300 µM
agonist properties in words (C5a receptor [2]): has agonist properties

Molecule: C-terminal C5a octapeptide: C-terminal C5a octapeptide which retained receptor binding activity (Kawai et al.) (HKDMQLGR; C5a anaphylatoxin; UniProt P01031 744-751, looked up, fragment)
C5a binding in words (C5a receptor [1]; literature): retained receptor binding activity

loss of potency in displacement of 125I-C5a in the presence of 293 cells (C5a receptor [3]): about 100 fold
Molecule: CC(C)C[C@H](NC(=O)CNC(=O)[C@H](CC1CCCCC1)NC(=O)[C@H](C)NC(=O)[C@H](CCCCN)NC(=O)[C@@H](N)Cc1ccccc1)C(=O)N[C@H](Cc1ccccc1)C(=O)N[C@@H](CCCNC(=N)N)C(=O)O [C013a] (H-FKA[Cha]GL[dF]R-OH)

B1: Phe for His67 substituted C5a peptide: Phe for His67 substituted C5a peptide (Mollison et al.) (peptide, UniProt P01031 678-751, looked up, variant H67F)
C5a anaphylatoxin: TLQKKIEEIAAKYKHSVVKKCCYDGACVNNDETCEQRAARISLGPRCIKAFTECCVVASQLRANISFKDMQLGR
modifications: C5a anaphylatoxin
Ki (C5a receptor [1]; literature, read-out: Ki for C5a binding): 0.26 µM
